Drawing on PubChem BioAssay AID977621 (Broad Institute, 2014), this text covers AC50 for 79 compounds.

Results filed as inconclusive are left out. Calls of active or inactive are those of the source.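 Rule for the calls: active = Wild-type ribosome reporter drop at least double the humanized mutant ribosome reporter drop, growth loss under a set limit; inconclusive = no clear call, values can overlap the other calls; inactive = the rest.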

The test system of this experiment is E. coli wild-type GFP strain growth, fluorescence, 24 h. The experiment is described as follows: wild-type E. coli growth inhibition versus H69 humanized strain – H69 mutant RFP, wild-type GFP, cherry-pick, dose response (AID 977621).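 Note: wild-type GFP and H69 mutant RFP strains grown together 50/50 in each well.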
The mark [1] stands for this setting: E. coli mixed culture, 24 h, measured here: total growth OD600, test 2.

What is called AC50 is the midpoint of the concentration-response curve, whichever way the signal moves. In the case of `C=C1SC(Nc2c(C)cc(C)cc2C)=NC12CCCCC2`, the AC50 was > 100 µM (inactive). In addition, the AC50 under setting [1] turned out to be 31.9 µM.
For `CCc1cc2c(NC(Cc3c[nH]c4ccccc34)C(=O)O)nc(C)nc2s1` (stereo unspecified), the AC50 was > 100 µM (inactive).
Turning to `COc1ccc(C(=O)Cn2nnc(-c3ccccc3F)n2)cc1`, the AC50 was > 100 µM (inactive). In addition, the AC50 under setting [1] amounted to 41.2 µM.
For `COc1ccc(OCCC(=O)OCC(=O)NCCC2=CCCCC2)cc1`, the half-maximal activity concentration (AC50) under setting [1] was more than 100 µM.
Consider `NC(=O)c1nsc(C(=O)N(c2ccccc2F)C(C(=O)NCc2ccc(F)cc2)c2ccc(O)cc2)c1N` (stereo unspecified), for which the AC50 is > 100 µM (inactive). Besides, the AC50 under setting [1] was determined as 47 µM.
In the case of `CCOc1ccc(NC(=O)CN2C(=O)COc3ccc(S(=O)(=O)N4CCCC4)cc32)cc1`, the AC50 was > 100 µM (inactive).
Consider `Cc1ccc(-c2cc[n+](Cc3ccccc3)cc2)cc1`, for which the half-maximal activity concentration (AC50) under setting [1] is more than 100 µM.
`COC(=O)c1c(C)oc(C)c1S(=O)(=O)Nc1ccc(C(C)C)cc1`: the AC50 is > 100 µM (inactive). Also, the half-maximal activity concentration (AC50) under setting [1] is 51.5 µM.
For `O=C(Cc1cccc(NC(=O)C2CCN(C(=O)C3CCCCC3)CC2)c1)Nc1cccc(C(=O)N2CCCC2)c1`, under setting [1], the AC50 was more than 100 µM.
In the case of `Cc1[nH]nc2c1C(c1ccc(F)cc1)N(Cc1ccccc1)C2=O` (stereo unspecified), the AC50 is > 100 µM (inactive).
Same read-out and setting: then `O=C1Nc2ccc(F)cc2C12Nc1ccccc1-c1nnc(SCc3ccccc3)nc1O2` (stereo unspecified), with > 100 µM (inactive).
`COCC#Cc1ccc2c(c1)O[C@@H](CN(C)S(=O)(=O)c1cccc(F)c1)[C@@H](C)CN([C@H](C)CO)S2(=O)=O` registered an AC50 under setting [1] of 51.3 µM.
The same measure, in the same setting: then `CC(C)Sc1sc(C(=O)O)c(-c2ccc(Cl)cc2)c1C#N`, with 32.7 µM.
With `Cc1cc(C)nc(SCc2cn3c(C)cccc3n2)n1`, the AC50 was > 100 µM (inactive).
Under setting [1], `COc1ccc(N(CCC(=O)O)S(=O)(=O)c2ccc(C)cc2C)cc1` displayed a concentration at half-maximal activity (AC50) of more than 100 µM.
For `CCOC(=O)Cc1csc(SCC(=O)Nc2cc(C)ccc2OC)n1`, the AC50 is > 100 µM (inactive). The compound also returned an AC50 under setting [1] of more than 100 µM.
For `Cc1nc2ccc(Br)cc2c(=O)n1Cc1cccs1`, in that order: > 100 µM (inactive) and 50.2 µM.
For `COc1ccc(C2=Nc3ccccc3NC(=O)C2N(C(=O)c2ccnc3ccccc23)c2ccccc2)cc1` (stereo unspecified), in that order: > 100 µM (inactive) and 34 µM.
With `CCOC(=O)c1sc2nc(NC(=O)C(C)(C)C)sc2c1C`, the AC50 is > 100 µM (inactive). The concentration at half-maximal activity (AC50) under setting [1] worked out at 38.9 µM.
`Cc1noc(C)c1S(=O)(=O)N(Cc1ccccc1)C(C)C` showed a concentration at half-maximal activity (AC50) under setting [1] of more than 100 µM.
Still for that read-out and setting: then `CCOC(=O)c1c(C)nsc1NCc1ccccc1`, with more than 100 µM; and `O=C1CCCN1CCCNc1ncnc2c1[nH]c1ccc(Cl)cc12`, with 40.5 µM.
The compound `Cc1nnc2sc(SCC(=O)Nc3ccc(Br)cc3)nn2c1=O` gave a half-maximal activity concentration (AC50) under setting [1] of more than 100 µM.
For the compound `Cc1ccc(C)c(N2CCN(C(=O)CCS(=O)(=O)c3ccc4c(c3)oc(=O)n4C)CC2)c1`, the AC50 under setting [1] is more than 100 µM.
Turning to `O=C(COC(=O)CCSc1ccc(F)cc1)NCc1ccc(F)cc1`, the AC50 was > 100 µM (inactive).
The same measure, in the same setting: then `C[C@@H]1CN([C@@H](C)CO)C(=O)CCCn2nncc2CO[C@H]1CN(C)C(=O)Nc1cccc(C(F)(F)F)c1`, with > 100 µM (inactive).
In the case of `CCOc1ccccc1N(CC(=O)Nc1ccccc1F)S(=O)(=O)c1ccccc1`, the AC50 is > 100 µM (inactive). Also, under setting [1], the half-maximal activity concentration (AC50) is 15.6 µM.
On the same counts, the results for `COc1cccc(C(=O)N2C[C@@H]3[C@H](c4ccccc42)[C@H](CO)N3Cc2ccccc2Cl)c1` are > 100 µM (inactive) and 48.8 µM.
Under setting [1], `CC(C)CN(C(=O)c1cc([N+](=O)[O-])cc([N+](=O)[O-])c1)C1CCS(=O)(=O)C1` (stereo unspecified) returned an AC50 of more than 100 µM.
For the compound `Cc1nn2c(NCc3ccccn3)cc(C(C)C)nc2c1-c1ccccc1`, the AC50 is > 100 µM (inactive).
The same measure, in the same setting: then `N#CCC(=O)Nc1ccc(C(=O)OCC(=O)Nc2ccc3ccccc3c2)cc1`, with > 100 µM (inactive); and `COc1ccc(OC)c(NC(=O)c2c3c(nc4ccccc24)CCC3)c1`, with > 100 µM (inactive).
Regarding `CC(CCc1ccccc1)NC(=O)CNC(=O)COc1ccccc1` (stereo unspecified), the AC50 under setting [1] was more than 100 µM.
On to `CCn1c(SCC(=O)Nc2ccc(OC)cc2)nc2nc3c(cc2c1=O)CCCC3`, for which the AC50 under setting [1] was more than 100 µM.
The same measure, in the same setting: under `CCN(CC)CCN(C(=O)c1ccc2c(c1)CCCC2)c1nc2ccc(F)cc2s1` stands 32.5 µM.
For the compound `Cc1ccc(NC(=O)c2c(C)noc2-c2snnc2C)cc1`, the AC50 was > 100 µM (inactive).
For the compound `Cc1ccc(-c2nc(CN3CCCCC3c3cccc(F)c3)c(C)o2)o1` (stereo unspecified), the AC50 under setting [1] was more than 100 µM.
As for `CN(C)CCCNc1ccc(-c2cc(Nc3cccc(Cl)c3)ncn2)cn1`, the AC50 is > 100 µM (inactive). This compound also came in with an AC50 under setting [1] of more than 100 µM.
Consider `CCOC(=O)c1c(NC(=O)CN2CCC(C)CC2)sc(C)c1C`, for which the AC50 under setting [1] was found to be 48.5 µM.
On to `Clc1ccccc1-c1nnc2sc(CCc3ccccc3)nn12`, for which the AC50 is > 100 µM (inactive). Under setting [1], this compound yielded a concentration at half-maximal activity (AC50) of 15.4 µM.
On the same counts, the results for `CSc1ccccc1NC(=O)CN(C)CC(=O)c1c(C)[nH]c2ccccc12` are > 100 µM (inactive) and 46.2 µM.
On the same counts, the results for `Cc1ccc(NC(=O)c2ccc(CSc3ccccn3)cc2)c(O)c1` are > 100 µM (inactive) and 20.9 µM.
For `Cc1ccc(-c2nc3ccc(NS(=O)(=O)c4ccccc4)cc3[nH]2)o1`, the AC50 is > 100 µM (inactive).
Still for that read-out and setting: under `O=C(NCc1cccnc1)c1ccc(COc2ccc3c(c2)CCC3)o1` stands > 100 µM (inactive).
Compound `O=C(CC1C(=O)N(c2ccc(Cl)cc2)C(=S)N1CCc1ccncc1)Nc1ccc(F)cc1` (stereo unspecified) yielded an AC50 under setting [1] of 36.4 µM.
On the same count and under the same terms, under `N#Cc1nc(-c2ccco2)oc1NCc1ccccc1Cl` stands 49.6 µM.
As for `CC(C)N1CC2(CC(c3ccccc3C(F)(F)F)=NO2)CN1C(=O)c1ccco1` (stereo unspecified), the AC50 was > 100 µM (inactive).
As to `COCC(C)NC(=O)c1nn(Cc2ccccc2)c(=O)c2ccccc12` (stereo unspecified), under setting [1], the AC50 is 28.2 µM.
Turning to `Cc1ccsc1C(=O)N1CCCC(C(=O)c2cc(F)ccc2F)C1` (stereo unspecified), the AC50 was > 100 µM (inactive). Further, the AC50 under setting [1] was more than 100 µM.
On the same counts, the results for `COC(=O)CN1C(=S)N(c2ccc(Cl)cc2)C(=O)C1CC(=O)Nc1ccc(F)cc1` (stereo unspecified) are > 100 µM (inactive) and more than 100 µM.
`Cc1nc(SCC(=O)Nc2ccc3c(c2)OCCO3)nc(C)c1C` gave a half-maximal activity concentration (AC50) under setting [1] of 43.7 µM.
Turning to `O=[N+]([O-])c1cncc([N+](=O)[O-])c1Nc1cccc(O)c1`, the AC50 is > 100 µM (inactive).
Same read-out and setting: under `COc1ccc(OCC2c3cc(OC)c(OC)cc3CCN2C(=O)C(C)C)cc1` (stereo unspecified) stands > 100 µM (inactive).
The same measure, in the same setting: under `COc1cc(NC(=O)C(c2ccccc2)c2ccccc2)c(C(=O)O)cc1OC` stands > 100 µM (inactive).
Same read-out and setting: then `Cc1nc(-c2ccc([N+](=O)[O-])cc2)c(-c2ccccc2)o1`, with > 100 µM (inactive).
For `COc1ccc(OC)c(NC(=O)COc2ccc(S(=O)(=O)NC(C)C)cc2)c1`, the AC50 under setting [1] was more than 100 µM.
Take `C=CCn1c(-c2sc(-c3ccccc3)nc2C)n[nH]c1=S`: the AC50 is > 100 µM (inactive).
Turning to `O=C(c1ccc2c(c1)CCN2S(=O)(=O)c1ccccc1)N1CCN(c2ccccc2)CC1`, the AC50 was > 100 µM (inactive). Further, the AC50 under setting [1] is more than 100 µM.
Turning to `COc1ccc(-c2cc(C(=O)Nc3ccc(C(N)=O)cc3)c3ccccc3n2)cc1OC`, the AC50 under setting [1] was more than 100 µM.
Consider `COc1ccc(NS(=O)(=O)c2ccc(NC(=O)c3ccccc3Br)cc2)nn1`, for which the AC50 was > 100 µM (inactive).
With `CCOc1ccccc1N1CC(C(=O)Nc2cccc(S(=O)(=O)N3CCCCC3)c2)CC1=O` (stereo unspecified), the AC50 under setting [1] is more than 100 µM.
Regarding `Cc1cnc(NC(=O)Cc2c[nH]c3ccccc23)s1`, the AC50 was > 100 µM (inactive).
For `O=C(c1cc2cc(F)ccc2[nH]1)N1CCN(Cc2ccc3c(c2)OCO3)CC1`, the AC50 is > 100 µM (inactive). The same compound gave an AC50 under setting [1] of 24.5 µM.
With `O=S(=O)(Cc1ccccc1)N1CCCCN2[C@@H](CO)[C@H](c3ccc(C#Cc4ccccc4)cc3)[C@@H]2C1`, the AC50 is > 100 µM (inactive).
With `O=C(O)c1ccc(COc2ccc3ccccc3c2)o1`, the AC50 was > 100 µM (inactive). This compound also came in with an AC50 under setting [1] of more than 100 µM.
As for `NC(=O)c1cc(NC(=O)c2cc(Br)c(Br)s2)cc(C(N)=O)c1`, the AC50 was > 100 µM (inactive).
Same read-out and setting: under `O=C(NCc1ccc(-c2nc3ccccc3s2)cc1)c1ccco1` stands > 100 µM (inactive).
In the case of `COc1cc(C(F)(F)F)c(C(=O)N(C)Cc2ccc(Cl)c(Cl)c2)cn1`, the AC50 is > 100 µM (inactive). Under setting [1], the AC50 amounted to 44.6 µM.
On the same counts, the results for `COc1cc(C(=O)Nc2nnc(S(=O)(=O)N3CCCCCC3)s2)cc(OC)c1OC` are > 100 µM (inactive) and 36.3 µM.
Consider `OCCCc1cn(-c2ccccc2)c2ccccc12`, for which the AC50 was > 100 µM (inactive).
On the same count and under the same terms, then `Cc1ccc(SCC(=O)Nc2ccc(S(=O)(=O)Nc3nccs3)cc2)cc1`, with > 100 µM (inactive); and `COc1ccc(NC(=O)Nc2cccc3c2O[C@H](CN(C)S(=O)(=O)c2ccc(Cl)cc2)[C@@H](C)CN([C@H](C)CO)C3=O)cc1`, with > 100 µM (inactive).
With `CCOc1ccc(CCNC(=O)CCn2ccc3cc(S(=O)(=O)N4CCCC4)ccc32)cc1`, the AC50 is > 100 µM (inactive). For the same compound, under setting [1], the half-maximal activity concentration (AC50) stood at 41.4 µM.
For `CN(Cc1c(F)cccc1Cl)C(=O)c1ccc(NS(=O)(=O)c2ccc3[nH]c(=O)[nH]c3c2)cc1`, the AC50 was > 100 µM (inactive).
The same measure, in the same setting: then `COC(=O)c1ccc(CN2CCCC(CO)(Cc3ccccc3F)C2)cc1` (stereo unspecified), with > 100 µM (inactive); and `CCN(c1cccc2ccccc12)S(=O)(=O)c1ccc(Cl)nc1`, with > 100 µM (inactive).
Same read-out and setting: then `O=C(C[C@H]1CC[C@@H]2[C@H](COC[C@@H](O)CN2C(=O)Nc2cc(Cl)cc(Cl)c2)O1)N1CCOCC1`, with > 100 µM (inactive); and `O=C(Nc1cscc1S(=O)(=O)c1ccccc1)c1ccccc1Cl`, with > 100 µM (inactive); and `O=C(CSc1n[nH]c(=O)n1C1CC1)Nc1ccc(Cl)c(Cl)c1`, with > 100 µM (inactive).
